Patent publication US5624687A, “Quick-dissolution solid preparation” (Yamanouchi Pharmaceutical Co., Ltd., priority 1991, dated 1997)
Where a name gives a salt, the structure may show the parent alone.

Assay: Solubility determination of bulk substance in test solutions of various pH (37° C., 1 hour)
Type: physicochemical
Details: for solubility at 1 h: test solution
Experimental: Emonapride hydrochloride (0.05-5 g) was added to 10 ml portions of test solutions of various pH and each mixture was shaken at 37° C. for 1 hour, at the end of which it was filtered through Nucripore Membrane (pore size 0.6 μm). A definite portion of the filtrate was taken out and diluted with acetate buffer (pH 3.0) for use as a sample solution.
Separately, about 0.1 g of emonapride hydrochloride was accurately weighed out and dissolved in methanol to make exactly 100 ml. One milliliter portion of this solution was accurately taken out and diluted with acetate buffer (pH 3.0) to make exactly 100 ml for use as the standard solution. For each of the test solution and the standard solution, the absorbance at 313 nm was measured by absorption spectrometry and the solubility was determined.
In the preparation of the test solutions, JP Test Solution 1 was used for pH 1.2, acetate buffer (S.phi.rensen buffer) for pH 2.0-5.0, phosphate buffer (Clark-Lubs buffer) for pH 6.0-7.6 and JP Test Solution 2 for pH 6.8.

CNc1cc(OC)c(C(=O)NC2CCN(Cc3ccccc3)C2C)cc1Cl (centres unmarked) [Emonapride, N-(1-Benzyl-2-methylpyrrolidin-3-yl)-5-chloro-2-methoxy-4-methylaminobenzamide]
solubility (statement in the description) (conditions over pH 4): drastically insoluble

CNc1cc(OC)c(C(=O)NC2CCN(Cc3ccccc3)C2C)cc1Cl (centres unmarked) [emonapride hydrochloride]
solubility change with pH (as the pH exceeded 4, 37° C.): decreased sharply
pH dependence of dissolution (bulc substance, from solubility at various pH): pH-dependent
solubility at 1 h (pH≤4, 37° C.): ≥ 5000 µg/mL
solubility at 1 h (pH≥6.8, 37° C.): ≤ 10 µg/mL
